From PubChem BioAssay AID686957 (The Scripps Research Institute Molecular Screening Center, 2013)
Activity calls are given as the source filed them. How the calls were made is not given here.

Target: T-cell receptor (TCR)-CD3 interaction, human (TCR alpha chain TRAV4)
Test: IC50 for blocking TCR-CD3 binding – biochemical, fluorescence, TAMRA-labeled TCR probe, dose response (AID 686957)

Compound | IC50
COC(=O)Nc1ccc(S(=O)(=O)NNC(=O)c2c(O)c3ccccc3[nH]c2=O)cc1 | > 94.1 µM (inactive)
O=c1cc(-c2ccc(O)c(O)c2)oc2ccc3ccccc3c12 | > 94.2 µM (inactive)
COc1ccc(/C=C2\SC(=O)N(CC(=O)NNC(=O)c3ccccc3O)C2=O)cc1 | > 94.1 µM (inactive)
COc1ccc(C(=O)C=CNNC(=O)c2ccc(Cl)cc2)cc1 | > 94.1 µM (inactive)
Oc1ccc(/C=N/Nc2ncnc3c2ncn3Cc2ccccc2)cc1O | > 94.1 µM (inactive)
COc1cc2ccccc2cc1C(=O)NNC(=O)c1ccccc1O | > 94.2 µM (inactive)
COc1ccc(NS(=O)(=O)c2cc(NC(=O)/C=C/c3cc(OC)c(OC)c(OC)c3)ccc2N2CCCCC2)cc1 | > 94.1 µM (inactive)
Cc1c(NC(=S)N/N=C/c2cc([N+](=O)[O-])ccc2O)c(=O)n(-c2ccccc2)n1C | > 94.1 µM (inactive)
O=C(NNC(=O)c1ccccc1O)c1ccc(-c2ccc([N+](=O)[O-])cc2)o1 | > 94.1 µM (inactive)
COCCNC(=O)Nc1ccc2nc(-c3ccco3)c(-c3ccco3)nc2c1 | > 94.1 µM (inactive)
O=C(N/N=C/c1c(O)n(Cc2ccco2)c(=O)[nH]c1=O)c1ccccc1O | > 94 µM (inactive)
O=C(N/N=C/c1cc(Br)cc(Br)c1O)c1cccc(N2CCCC2=O)c1 | > 94.1 µM (inactive)
Nc1ncnc2oc(-c3ccco3)c(-c3ccco3)c12 | inactive
O=C1/C(=C/c2ccco2)SC(=S)N1c1cccnc1 | > 94.1 µM (inactive)
Cc1ccc(/C=C2\SC(=S)N(CCCC(=O)NNC(=O)c3ccccc3O)C2=O)cc1 | > 94.1 µM (inactive)
COc1ccc(/C=N/NC(=O)c2cc(O)c(O)c(O)c2)cc1Cn1cc([N+](=O)[O-])cn1 | 3.84 µM
O=C(NNC(=S)NC(=O)c1cccs1)c1ccc(O)cc1 | > 94 µM (inactive)
CC(=O)NC(CC(=O)NNC(=O)c1cc2ccccc2cc1O)c1ccccc1 (stereo unspecified) | > 94.1 µM (inactive)
O=C(NC(C(=O)N/N=C/c1cc([N+](=O)[O-])ccc1O)c1n[nH]c(=O)c2ccccc12)c1ccccc1 (stereo unspecified) | > 94.1 µM (inactive)
CNC(=S)NNC(=O)c1cccn(Cc2ccc(Cl)c(Cl)c2)c1=O | > 94 µM (inactive)
COc1ccc(C(=O)NNC(=S)NC(=O)c2cccc([N+](=O)[O-])c2)cc1 | > 94.1 µM (inactive)
CC/C(=N\NC(=O)c1ccccc1O)c1c(O)n(Cc2ccccc2)c(=O)[nH]c1=O | > 94.1 µM (inactive)

Compound | IC50
CC(C)C(=O)Nc1ccc(C(=O)NNC(=S)NC(=O)c2ccco2)cc1 | > 94.1 µM (inactive)
CCC1=NN(C(=O)c2cccc([N+](=O)[O-])c2)C(O)(c2ccc(C)cc2)C1 (stereo unspecified) | > 94.1 µM (inactive)
Cc1ccc(/C=C2\SC(=S)N(CCC(=O)NNC(=O)c3ccccc3O)C2=O)cc1 | > 94.1 µM (inactive)
O=C(N/N=C/c1c(O)n(CCc2ccccc2)c(=O)[nH]c1=O)c1ccccc1O | > 94 µM (inactive)
Cc1cc2oc3ccc(NCCCn4ccnc4)cc3c(=O)c2cc1C | > 94.1 µM (inactive)
Oc1c(Br)cc(Br)cc1/C=N/NC(=S)N[C@H]1CC2C=CC1C2 (stereo partly specified) | > 94.1 µM (inactive)
CC1CCN(S(=O)(=O)c2ccc(NC(=O)Cn3nnc(-c4ccccc4F)n3)cc2)CC1 | inactive
CC(C)C(=O)Nc1ccc(C(=O)NNC(=S)NC(=O)c2ccccc2[N+](=O)[O-])cc1 | > 94.1 µM (inactive)
O=C(N/N=C/c1cccnc1)c1cc(O)c(O)c(O)c1 | > 94 µM (inactive)
CNC(=S)NNC(=O)c1cccn(Cc2cccc(Cl)c2)c1=O | > 94.1 µM (inactive)
O=C(Cc1ccccc1)NNC(=S)NC(=O)c1cccnc1 | > 94.1 µM (inactive)
CN=c1scc(C)n1/N=C/c1ccc(O)c(O)c1O | inactive
CNC(=S)NNC(=O)c1oc2nc(-c3ccccc3)cc(-c3ccco3)c2c1N | > 94.1 µM (inactive)
COc1ccc(C(=O)Nc2nnc(CC(=O)N/N=C/c3ccc(O)cc3O)s2)cc1 | > 94.1 µM (inactive)
Cc1cc(=O)oc2cc(OCC(=O)N/N=C/c3cc([N+](=O)[O-])ccc3O)ccc12 | > 94.1 µM (inactive)
Cc1c(C(=O)NNC(=O)c2ccccc2O)oc2ccccc12 | > 94 µM (inactive)
Cc1ccc(S(=O)(=O)N2CCC(C(=O)NNC(=O)c3ccccc3O)CC2)cc1C | > 94.1 µM (inactive)
O=C1NC(=S)NC1=Cc1ccco1 | > 94.1 µM (inactive)
Cc1nc(S/C(=C/c2ccc(-c3ccc(C(=O)O)cc3)o2)C(=O)O)n[nH]1 | > 94.2 µM (inactive)
Cc1cc([N+](=O)[O-])cc(/C=N\NC(=O)C2COc3ccccc3O2)c1O (stereo unspecified) | > 94.2 µM (inactive)
CCOc1ccc(NC(=O)NNC(=O)c2ccc3ccccc3c2O)cc1 | > 94.1 µM (inactive)
O=C(Nc1cccc(S(=O)(=O)NC2=NCCC2)c1)c1cc(-c2ccco2)nc2ccccc12 | > 94.1 µM (inactive)

Compound | IC50
O=C(NNC(=S)NC(=O)c1cccnc1)c1ccc(F)cc1 | > 94.1 µM (inactive)
Cc1cc(C(=O)N/N=C/c2cc(Br)cc([N+](=O)[O-])c2O)c2ccccc2n1 | > 94.1 µM (inactive)
COc1ccc(-c2cnnn2-c2ccc(NC(=O)c3ccc(S(=O)(=O)N4CCCCC4)cc3)cc2)cc1OC | inactive
COc1ccc(/C=N\NC(=O)c2cc(O)c(O)c(O)c2)cc1CN1CCN(c2ccc(F)cc2)CC1 | > 94.2 µM (inactive)
CC1(C)CC2CC(C)(CN2S(=O)(=O)c2ccc(C(=O)Nc3cccc(S(=O)(=O)N4CCOCC4)c3)cc2)C1 (stereo unspecified) | inactive
CC1CCCC(C)N1/N=C/c1ccc(O)c(O)c1 (stereo unspecified) | > 94.1 µM (inactive)
Cc1cccc(-n2c(O)c(/C=N/NC(=O)c3ccccc3Cl)c3ccccc3c2=O)n1 | > 94.1 µM (inactive)
Cc1cc([N+](=O)[O-])cc(/C=N/n2c(C)nc3ccccc3c2=O)c1O | > 94 µM (inactive)
C/C(=N\OCc1nc2ccccc2c(=O)n1/N=C/c1cc(C)cc([N+](=O)[O-])c1O)c1ccccc1 | > 94.1 µM (inactive)
Cc1ccc2nc(-c3ccc(O)c(O)c3)cn2c1 | > 94.1 µM (inactive)
O=C(NNC(=O)c1ccc2ccccc2c1O)NC1CCCCC1 | > 94.1 µM (inactive)
O=C1Nc2ccccc2/C1=N\N=C\c1ccc(O)c(O)c1 | > 94.1 µM (inactive)
Cc1nc2ccccc2c(=O)n1/N=C/c1cc(Br)cc(Br)c1O | > 94.1 µM (inactive)
O=C(CCc1ccc(S(=O)(=O)N2CCOCC2)cc1)N/N=C/c1ccc(O)c(O)c1O | > 94.1 µM (inactive)
Cc1noc(C)c1COc1ccc(C(=O)NNC(=O)c2ccccc2O)cc1 | > 94.1 µM (inactive)
O=C(CNC(=O)c1ccccc1F)NNC(=O)c1ccccc1O | > 94.1 µM (inactive)
Nc1ccc2nc3c(=O)[nH]c(=S)[nH]c3nc2c1 | 3.74 µM
O=c1cc(-c2ccc(O)cc2)oc2cc(O)c(C3OC(CO)C(O)C(O)C3O)c(O)c12 (stereo unspecified) | > 94.1 µM (inactive)
Cc1[nH]n(-c2ccccc2)c(=O)c1N=Nc1ccccc1O | > 94.1 µM (inactive)
COc1cccc(C(=O)NNC(=O)c2ccc3ccccc3c2O)c1 | > 94.1 µM (inactive)
CC(=O)c1ccc(NC(=O)CN2C(=O)/C(=C/C(C)=C/c3ccccc3)SC2=S)cc1 | > 94.1 µM (inactive)
CN(C(=O)COC(=O)c1cc(-c2ccco2)nc2ccccc12)C1CCS(=O)(=O)C1 (stereo unspecified) | inactive
